US12214008B2, “Protein interfaces” (SyntheX, Inc., priority 2016, dated 2025)

Key:
A549 xenograft = assay: athymic mouse A549 xenograft model; assay type: in vivo, mice
Procedure: Female athymic nu/nu mice (6-8 weeks old) were purchased from Simonsen labs (n=12) and were housed at the Murigenics vivarium in Vallejo. The mice were acclimated to the setting of the vivarium for 5 days and maintained on a standard chow diet; 12:12 dark/light cycle; and group housed (3 mice per cage) in hepa-filtered cages. After acclimation, each mouse was injected subcutaneously (lower left abdominal flank) with 5×10^6 A549 (ATCC: CCL-185) cells mixed with 1:1 (v/v) with Matrigel solution. When the tumors reached a volume of ˜100 mm3, the mice were divided into separate treatment groups for the desired treatments. Experiments using both intra-tumoral (IT) and intraperitoneal (IP) administration were performed and the data are reported in FIG. 19.
Mice prepared as described above were divided into 4 groups: • Group 1: were not treated with anything (n=3) • Group 2: received an intra-tumoral injection of 50 microliters of Phosphate Buffered Saline (mock) (n=3) • Group 3: received an intra-tumoral injection of 50 microliters of 10 mg/ml compound 10 in Phosphate Buffered Saline (n=3) • Group 4: received an intra-tumoral injection of 50 microliters of 20 mg/ml compound 10 in Phosphate Buffered Saline (n=3)
The 50 microliter injections were carried out with a (30 g needle). The injections were administered on day zero and then again on day 3. The length (L) and the width (W) of the tumor mass was measured with a Vernier caliper and the tumor volume (V) was calculated as V=(L×W^2)/2. The relative tumor volume of each tumor mass on each measurement day was normalized against the initial volume of the same mass on day zero right before initiation of injections. […]
The injections were carried out with a 30 g needle. […] The length (L) and the width (W) of the tumor mass was measured with a Vernier caliper and the tumor volume (V) was calculated as V=(L×W^2)/2. […]

RAD51 = molecular target: T1, RAD51 (Homo sapiens, UniProt Q06609); assay: microscale thermophoresis; assay type: binding
T1 sequence (Q06609 1-339): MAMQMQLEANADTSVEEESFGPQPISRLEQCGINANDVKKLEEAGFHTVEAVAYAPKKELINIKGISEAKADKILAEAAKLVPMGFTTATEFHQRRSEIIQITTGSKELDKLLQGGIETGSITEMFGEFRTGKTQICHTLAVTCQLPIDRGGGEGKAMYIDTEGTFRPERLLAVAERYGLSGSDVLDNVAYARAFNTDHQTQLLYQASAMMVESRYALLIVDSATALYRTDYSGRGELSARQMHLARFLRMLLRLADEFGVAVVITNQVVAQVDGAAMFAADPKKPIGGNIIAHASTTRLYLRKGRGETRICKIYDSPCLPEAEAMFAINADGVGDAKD
Procedure: To test the interaction between calcium binding and peptide binding to RAD51, the Kds of active (Compound 5, 10) peptides for RAD51 were tested by a microscale thermophoresis assay, and the Kd of compound 5 was additionally performed in the presence of 1 mM calcium.
Microscale thermophoresis was performed as previously described (see, for e.g. Jerabek-Willemsen, M., Wienken, C. J., Braun, D., Baaske, P. & Duhr, S. Molecular interaction studies using microscale thermophoresis. Assay Drug Dev. Technol. 9, 342-353 (2011)). The affinity of the Compound was measured using the Monolith NT.115 from Nanotemper Technologies. Rad51 was fluorescently labelled according to the manufacturer's protocol and the labelled protein used for each assay was about 500 nM. A solution of unlabelled peptide was diluted for appropriate serial concentration gradient. The samples were loaded into silica capillaries (Polymicro Technologies). Measurements were performed at room temperature in buffer containing PBS, 0.1% Tween 20, 0.5 mM ATP, 2.5 uM ssDNA, with 1 mM CaCl2 (when mentioned). Measurements were done using 12% LED power and 60% MST power. The assays were repeated three times for each affinity measurement. Data analyses were performed using Nanotemper Analysis software and OriginPro 8.0 software provided by the manufacturer.

A549 cells = assay: xCELLigence cell death assay; assay type: cell-based; details: FIG. 15
Procedure: (§1) To optimize cellular activity, compounds were tested in xCELLigence cell death assays against various cell lines. An example of the workflow used is shown using A549 cells and compound 10 in FIGS. 15 and 16. […] Data from xCELLigence traces at different compound concentrations from FIG. 15 was then used to generate a dose-response curve, which was then subjected to nonlinear regression using a sigmoidal dose-response model to generate IC50s and R2 values for cell death for each compound/cell line combination (FIG. 16).

SSP-25 cells = assay: xCELLigence cell death assay; assay type: cell-based; details: 10 μM compound 10 alone
Procedure: Further, singly-dosed cells continued to recover, which indicated reduced general cytotoxicity of the compound in the media or the lysed cells.
as §1
To further investigate the hypothesis that peptide binding to RAD51 in cells causes cell death via increases in intracellular free calcium levels, compound 10 alone and in combination with two different intracellular calcium chelators (1,2-Bis(2-aminophenoxy) ethane-N,N,N′,N′-tetraacetic acid tetrakis(acetoxymethyl ester) aka “BAPTA-AM”, and ammoniated ruthenium oxychloride aka “ruthenium red”) was tested in an xCELLigence™ cell death assay as in Example 3. The intracellular calcium chelators alone were also evaluated on the cells.

Kd (RAD51; PBS): 8.55 nM | Kd (RAD51; without added calcium): ~8 nM
SMILES: CSCC[C@@H](NC(=O)[C@@H](CC(C)C)NC(C)=O)C(=O)N[C@H](CCCNC(=N)N)C(=O)N[C@H](CO)C(=O)N[C@@H](C(=O)N[C@H](CCCNC(=N)N)C(=O)N[C@H](CC(C)C)C(=O)N[C@H](CCCNC(=N)N)C(=O)N[C@@H](C(=O)NCC(=O)N[C@H](CC(C)C)C(=O)N[C@H](CCCNC(=N)N)C(=O)N[C@H](CCCCN)C(=O)N[C@H](CCCNC(=N)N)C(=O)N[C@H](CCCNC(=N)N)C(=O)N[C@H](CCCNC(=N)N)C(=O)N[C@H](CCCNC(=N)N)C(=O)N[C@H](CCCNC(=N)N)C(=O)N[C@H](CCCNC(=N)N)C(=O)N[C@H](CCCNC(=N)N)C(N)=O)C(C)C)C(C)C [Compound 10, Ac-lmrsvrlrvGlrkrrrrrrr-NH2]
relative tumor volume, intra-tumoral dosing (A549 xenograft; 50 microliters of 10 or 20 mg/ml intra-tumoral on day 0 and day 3, measured days 0, 3, 6): measurable decreases in tumor size as early as day 3 | relative tumor volume, intra-peritoneal dosing (A549 xenograft; 125 microliters of 3 mg/ml intra-peritoneal on day 7, measured days 0-10): measurable decreases in tumor size as early as 3 days after injection (day 10) | tumor volume (A549 xenograft; FIG. 19, intratumoral and intraperitoneal): significant effects on tumor volume after only a few days of treatment | cell killing of A549 cells (cell index) (A549 cells): cell killing of A549 cells | cell death of SSP-25 cells, compound alone (SSP-25 cells): significant cell death
